Test results from patent US20260265538A1, “Aqueous Industrial Product Stabilized Against Microbial Contamination” (Thor GmbH, priority 2023, published 2026).

Tested on: Bacteria mixture 2 (alkaliphilic bacteria of the Nesterenkonia & Alkalibacterium genus)
Experiment: Repetitive stress test of paints with bacteria mixture 2, semiquantitative evaluation (examples 4 and 5)
Assay type: cell-based
Set-up: key to Bacterial growth after inoculation: 0: No growth; Minimal growth, 1 to 10 colonies visible over the entire streak; 2: Light growth, maximum 100 colonies; Moderate growth, maximum 300 to 400 colonies; Uniform growth, >400 colonies, single colonies still clearly recognizable; 5: Heavy growth, too many colonies to count, but no growth over the entire streak; 6: Full growth, barely any single colonies still apparent, growth over the entire streak
Conditions: Table 4
Text: Paints 1 to 3 were mixed and homogenized with various concentrations of the guanidinium salts to be tested.
The batches obtained of the paint thus prepared were inoculated repeatedly with a mixture of different wild-type bacterial strains that are of practical relevance with regard to contamination. These bacteria had previously been isolated from commercial emulsion paints containing conventional preservatives (bacteria mixture 1, Pseudomonas genus), which are microbially contaminated in practice, and commercial so-called preservative-free alkaline emulsion paints (bacteria mixture 2, alkaliphilic bacteria of the Nesterenkonia & Alkalibacterium genus), which are microbially contaminated in practice.
• Nesterenkonia sp. DSM 108520 • Nesterenkonia sp. DSM 108521 • Alkalibacterium pelagium DSM 108522 • Nesterenkonia massiliensis DSM 110679 • Nesterenkonia sp. DSM 108519
The inoculum was added to the respective sample in each inoculation at 2% (v/w) as a fresh cell suspension in a physiological saline solution (0.9% NaCl). The cell count of the added inoculum in example 1 was 10^5/ml, in examples 2 to 5 10^9/ml, and in example 6 10^6/ml, each in equal portions consisting of the individual bacterial strains. The cell suspension was produced by growing the individual bacteria at 30° C. for 24 h in liquid culture on a shaker. The medium used to grow the bacteria from bacteria mixture 1 was Müller-Hinton liquid medium. Bacteria from bacteria mixture 2 were grown in Müller-Hinton liquid medium that had been adjusted to pH 9.5-9.7 with an alkaline buffer solution beforehand. After growing, the individual liquid cultures were centrifuged, and the cells were resuspended in physiological saline solution. In order to adjust the mixture to the desired cell count, the individual bacteria suspensions, if necessary, were diluted accordingly before being combined with saline solution. The cell count of the inoculum was determined in each case by chamber counting.
In examples 2 to 6, what is called a repetitive stress test with bacteria was conducted by inoculating the samples at particular time intervals repeatedly with a bacteria suspension having a cell count of 10^9/ml (2% v/w) and monitoring the evolution of the bacteria by a semiquantitative evaluation method. After each inoculation, the samples were incubated at 30° C. for 6 days (bacteria mixture 1 and 3) or 7 and 14 days (bacteria mixture 2), and after these periods bacterial infestation was evaluated semiquantitatively in each case. For this purpose, an aliquot was taken from each sample after homogenization using a sterile plastic inoculation loop (10 μl) and streaked evenly on agar plates (bacteria mixture 1 and 3 on tryptic soy agar, bacteria mixture 2 on DSMZ 31 alkaline nutrient agar). The streaked agar plates were then incubated at 30° C. for 48 h (bacteria mixture 1 and 3) or 5 to 7 days (bacteria mixture 2). After incubation, the bacterial colonies grown on the agar plates were visually evaluated and quantified according to the following scheme:
A total of 3 inoculation cycles was performed in each repetitive stress test.
Inoculation 2% (w/v) with Bacteria Mixture 2, 10^9 CFU/ml

Measured: Bacterial growth after inoculation

N=C(N)N.N=C(N)N.O=C(O)O [guanidine carbonate]
2 (Light growth, maximum 100 colonies): Paint 2, +0.1% guanidine carbonate (656 ppm guanidine), pH 8.9, 1. inoculation, 7 d
6: Paint 2, +0.1% guanidine carbonate (656 ppm guanidine), pH 8.9, 2. inoculation, 7 d
0: Paint 2, +0.1% guanidine carbonate (656 ppm guanidine), pH 8.9, 1. inoculation, 14 d
0/0: Paint 1, +0.1% guanidine carbonate (656 ppm guanidine), pH 9.1, 1. inoculation, 7 d | Paint 1, +0.1% guanidine carbonate (656 ppm guanidine), pH 9.1, 1. inoculation, 14 d | Paint 1, +0.1% guanidine carbonate (656 ppm guanidine), pH 9.1, 2. inoculation, 7 d | Paint 1, +0.1% guanidine carbonate (656 ppm guanidine), pH 9.1, 2. inoculation, 14 d | Paint 1, +0.15% guanidine carbonate (984 ppm guanidine), pH 9.4, 1. inoculation, 7 d | Paint 1, +0.15% guanidine carbonate (984 ppm guanidine), pH 9.4, 1. inoculation, 14 d | Paint 1, +0.15% guanidine carbonate (984 ppm guanidine), pH 9.4, 2. inoculation, 7 d | Paint 1, +0.15% guanidine carbonate (984 ppm guanidine), pH 9.4, 2. inoculation, 14 d | Paint 1, +0.15% guanidine carbonate (984 ppm guanidine), pH 9.4, 3. inoculation, 7 d | Paint 1, +0.15% guanidine carbonate (984 ppm guanidine), pH 9.4, 3. inoculation, 14 d | Paint 1, +0.2% guanidine carbonate (1312 ppm guanidine), pH 9.6, 1. inoculation, 7 d | Paint 1, +0.2% guanidine carbonate (1312 ppm guanidine), pH 9.6, 1. inoculation, 14 d | Paint 1, +0.2% guanidine carbonate (1312 ppm guanidine), pH 9.6, 2. inoculation, 7 d | Paint 1, +0.2% guanidine carbonate (1312 ppm guanidine), pH 9.6, 2. inoculation, 14 d | Paint 1, +0.2% guanidine carbonate (1312 ppm guanidine), pH 9.6, 3. inoculation, 7 d | Paint 1, +0.2% guanidine carbonate (1312 ppm guanidine), pH 9.6, 3. inoculation, 14 d | Paint 1, +0.25% guanidine carbonate (1640 ppm guanidine), pH 9.7, 1. inoculation, 7 d | Paint 1, +0.25% guanidine carbonate (1640 ppm guanidine), pH 9.7, 1. inoculation, 14 d | Paint 1, +0.25% guanidine carbonate (1640 ppm guanidine), pH 9.7, 2. inoculation, 7 d | Paint 1, +0.25% guanidine carbonate (1640 ppm guanidine), pH 9.7, 2. inoculation, 14 d | Paint 1, +0.25% guanidine carbonate (1640 ppm guanidine), pH 9.7, 3. inoculation, 7 d | Paint 1, +0.25% guanidine carbonate (1640 ppm guanidine), pH 9.7, 3. inoculation, 14 d | Paint 1, +0.3% guanidine carbonate (1968 ppm guanidine), pH 9.7, 1. inoculation, 7 d | Paint 1, +0.3% guanidine carbonate (1968 ppm guanidine), pH 9.7, 1. inoculation, 14 d | Paint 1, +0.3% guanidine carbonate (1968 ppm guanidine), pH 9.7, 2. inoculation, 7 d | Paint 1, +0.3% guanidine carbonate (1968 ppm guanidine), pH 9.7, 2. inoculation, 14 d | Paint 1, +0.3% guanidine carbonate (1968 ppm guanidine), pH 9.7, 3. inoculation, 7 d | Paint 1, +0.3% guanidine carbonate (1968 ppm guanidine), pH 9.7, 3. inoculation, 14 d | Paint 1, +0.4% guanidine carbonate (2624 ppm guanidine), pH 9.9, 1. inoculation, 7 d | Paint 1, +0.4% guanidine carbonate (2624 ppm guanidine), pH 9.9, 1. inoculation, 14 d | Paint 1, +0.4% guanidine carbonate (2624 ppm guanidine), pH 9.9, 2. inoculation, 7 d | Paint 1, +0.4% guanidine carbonate (2624 ppm guanidine), pH 9.9, 2. inoculation, 14 d | Paint 1, +0.4% guanidine carbonate (2624 ppm guanidine), pH 9.9, 3. inoculation, 7 d | Paint 1, +0.4% guanidine carbonate (2624 ppm guanidine), pH 9.9, 3. inoculation, 14 d | Paint 1, +0.5% guanidine carbonate (3280 ppm guanidine), pH 10.1, 1. inoculation, 7 d | Paint 1, +0.5% guanidine carbonate (3280 ppm guanidine), pH 10.1, 1. inoculation, 14 d | Paint 1, +0.5% guanidine carbonate (3280 ppm guanidine), pH 10.1, 2. inoculation, 7 d | Paint 1, +0.5% guanidine carbonate (3280 ppm guanidine), pH 10.1, 2. inoculation, 14 d | Paint 1, +0.5% guanidine carbonate (3280 ppm guanidine), pH 10.1, 3. inoculation, 7 d | Paint 1, +0.5% guanidine carbonate (3280 ppm guanidine), pH 10.1, 3. inoculation, 14 d | Paint 1, +1.0% guanidine carbonate (6560 ppm guanidine), pH 10.4, 1. inoculation, 7 d | Paint 1, +1.0% guanidine carbonate (6560 ppm guanidine), pH 10.4, 1. inoculation, 14 d | Paint 1, +1.0% guanidine carbonate (6560 ppm guanidine), pH 10.4, 2. inoculation, 7 d | Paint 1, +1.0% guanidine carbonate (6560 ppm guanidine), pH 10.4, 2. inoculation, 14 d | Paint 1, +1.0% guanidine carbonate (6560 ppm guanidine), pH 10.4, 3. inoculation, 7 d | Paint 1, +1.0% guanidine carbonate (6560 ppm guanidine), pH 10.4, 3. inoculation, 14 d
6/6: Paint 1, +0.1% guanidine carbonate (656 ppm guanidine), pH 9.1, 3. inoculation, 7 d | Paint 1, +0.1% guanidine carbonate (656 ppm guanidine), pH 9.1, 3. inoculation, 14 d
